Test results reported in patent US20260364214A1, “MULTIVALENT FIBROBLAST ACTIVATION PROTEIN LIGANDS FOR TARGETED DELIVERY APPLICATIONS” (Philochem AG, priority 2022, published 2026).

Columns and labels:
[1] = system: SK-RC-52.hFAP tumors; experiment: Quantitative biodistribution in SK-RC-52.hFAP tumor bearing mice; assay type: in vivo, mouse (female athymic Balb/c AnNRj-Foxn1); conditions: i.v. 250 nmol/kg, 50 MBq/kg
Outline: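 Female athymic Balb/c nude mice carried subcutaneous SK-RC-52.hFAP tumors (5 million cells, ~300 mm^3). 177Lu-labeled conjugates were given i.v. at 250 nmol/kg, 50 MBq/kg. Tissues gamma-counted at several time points as %ID/g±SD, tumor values corrected for growth rate; tumor-to-organ ratios derived.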

[2] = Determination of Log D7.4 (1-octanol/PBS); assay type: physicochemical; conditions: 1-octanol/PBS pH 7.4; 177Lu-labeled
Procedure: The lipophilicity of ^177Lu-ESV6, ^177Lu-Bi-ESV6, ^177Lu-Tri-ESV6 and ^177Lu-FAP-2286 was determined as follows. 100 μL aliquots of the radioligand (~1 MBq) in PBS buffer were added to PBS buffer (500 μL, pH 7.4) and 1-octanol (600 μL). The two-layer mixture were vigorously shaken for 10 minutes on a vortex mixer and then centrifuged at 700 rpm for 5 min to facilitate the separation. 100 μL aliquots of both layers were measured in a Packard Cobra Gamma Counter and the partition coefficient was determined by dividing cpm (octanol) by cpm (PBS) and indicated as Log D7.4. • Log D7.4 (^177Lu-ESV6): −4.13 • Log D7.4 (^177Lu-Bi-ESV6): −3.75 • Log D7.4 (^177Lu-Tri-ESV6): −3.10 • Log D7.4 (^177Lu-FAP-2286): −3.05

**Q.** With `N#CC1CC(F)(F)CN1C(=O)CNC(=O)c1ccnc2c(NC(=O)CCC(=O)NCCCCC(NC(=O)CCC(=O)Nc3cccc4c(C(=O)NCC(=O)N5CC(F)(F)CC5C#N)ccnc34)C(=O)NCCNC(=O)CCC(C(=O)O)N3CCN(CC(=O)[O-])CCN(CC(=O)[O-])CCN(CC(=O)[O-])CC3)cccc12.[177Lu+3]` (stereo not shown) [^177Lu-Bi-ESV6-DOTAGA, reference compound] as the compound, how does the “Tumor to organs ratio, Blood” value ([1]; 24 h) read?
**A.** 270.81

**Q.** What about the “Injected dose per gram, Blood” value ([1]; 24 h post injection) of the same compound?
**A.** 0.05 % ID/g

**Q.** And the “Tumor to organs ratio, Blood” value ([1]; 48 h)?
**A.** 4240.99

**Q.** What about the “Injected dose per gram, Blood” value ([1]; 48 h post injection) of the same compound?
**A.** 0.00 % ID/g

**Q.** What about the “Tumor to organs ratio, Blood” value ([1]; 72 h) of the same compound?
**A.** 2515.44

**Q.** And the “Injected dose per gram, Blood” value ([1]; 72 h post injection)?
**A.** 0.00 % ID/g

**Q.** And the “Tumor to organs ratio, Heart” value ([1]; 24 h)?
**A.** 342.92

**Q.** What about the “Injected dose per gram, Heart” value ([1]; 24 h post injection) of the same compound?
**A.** 0.05 % ID/g

**Q.** And the “Tumor to organs ratio, Heart” value ([1]; 48 h)?
**A.** 1206.24

**Q.** And the “Injected dose per gram, Heart” value ([1]; 48 h post injection)?
**A.** 0.01 % ID/g

**Q.** And the “Tumor to organs ratio, Heart” value ([1]; 72 h)?
**A.** 203.58

**Q.** What about the “Injected dose per gram, Heart” value ([1]; 72 h post injection) of the same compound?
**A.** 0.04 % ID/g

**Q.** What about the “Tumor to organs ratio, Intestine” value ([1]; 24 h) of the same compound?
**A.** 298.43

**Q.** And the “Injected dose per gram, Intestine” value ([1]; 24 h post injection)?
**A.** 0.05 % ID/g

**Q.** What about the “Tumor to organs ratio, Intestine” value ([1]; 48 h) of the same compound?
**A.** 458.76

**Q.** What about the “Injected dose per gram, Intestine” value ([1]; 48 h post injection) of the same compound?
**A.** 0.03 % ID/g

**Q.** And the “Tumor to organs ratio, Intestine” value ([1]; 72 h)?
**A.** 544.57

**Q.** And the “Injected dose per gram, Intestine” value ([1]; 72 h post injection)?
**A.** 0.06 % ID/g

**Q.** What about the “Tumor to organs ratio, Kidney” value ([1]; 24 h) of the same compound?
**A.** 14.96

**Q.** And the “Injected dose per gram, Kidney” value ([1]; 24 h post injection)?
**A.** 0.96 % ID/g

**Q.** What about the “Tumor to organs ratio, Kidney” value ([1]; 48 h) of the same compound?
**A.** 17.41

**Q.** What about the “Injected dose per gram, Kidney” value ([1]; 48 h post injection) of the same compound?
**A.** 0.47 % ID/g

**Q.** And the “Tumor to organs ratio, Kidney” value ([1]; 72 h)?
**A.** 12.21

**Q.** And the “Injected dose per gram, Kidney” value ([1]; 72 h post injection)?
**A.** 0.66 % ID/g

**Q.** What about the “Tumor to organs ratio, Liver” value ([1]; 24 h) of the same compound?
**A.** 48.81

**Q.** And the “Injected dose per gram, Liver” value ([1]; 24 h post injection)?
**A.** 0.29 % ID/g

**Q.** And the “Tumor to organs ratio, Liver” value ([1]; 48 h)?
**A.** 51.30

**Q.** What about the “Injected dose per gram, Liver” value ([1]; 48 h post injection) of the same compound?
**A.** 0.16 % ID/g

**Q.** And the “Tumor to organs ratio, Liver” value ([1]; 72 h)?
**A.** 28.14

**Q.** And the “Injected dose per gram, Liver” value ([1]; 72 h post injection)?
**A.** 0.29 % ID/g

**Q.** And the “Tumor to organs ratio, Lung” value ([1]; 24 h)?
**A.** 184.57

**Q.** What about the “Injected dose per gram, Lung” value ([1]; 24 h post injection) of the same compound?
**A.** 0.08 % ID/g

**Q.** And the “Tumor to organs ratio, Lung” value ([1]; 48 h)?
**A.** 300.13

**Q.** And the “Injected dose per gram, Lung” value ([1]; 48 h post injection)?
**A.** 0.03 % ID/g

**Q.** And the “Tumor to organs ratio, Lung” value ([1]; 72 h)?
**A.** 517.13

**Q.** What about the “Injected dose per gram, Lung” value ([1]; 72 h post injection) of the same compound?
**A.** 0.06 % ID/g

**Q.** What about the “Tumor to organs ratio, Muscle” value ([1]; 24 h) of the same compound?
**A.** 135.38

**Q.** What about the “Injected dose per gram, Muscle” value ([1]; 24 h post injection) of the same compound?
**A.** 0.12 % ID/g

**Q.** What about the “Tumor to organs ratio, Muscle” value ([1]; 48 h) of the same compound?
**A.** 270.58

**Q.** What about the “Injected dose per gram, Muscle” value ([1]; 48 h post injection) of the same compound?
**A.** 0.05 % ID/g

**Q.** And the “Tumor to organs ratio, Muscle” value ([1]; 72 h)?
**A.** 140.83

**Q.** And the “Injected dose per gram, Muscle” value ([1]; 72 h post injection)?
**A.** 0.08 % ID/g

**Q.** And the “Tumor to organs ratio, Spleen” value ([1]; 24 h)?
**A.** 125.34

**Q.** And the “Injected dose per gram, Spleen” value ([1]; 24 h post injection)?
**A.** 0.11 % ID/g

**Q.** What about the “Tumor to organs ratio, Spleen” value ([1]; 48 h) of the same compound?
**A.** 133.66

**Q.** And the “Injected dose per gram, Spleen” value ([1]; 48 h post injection)?
**A.** 0.07 % ID/g

**Q.** What about the “Tumor to organs ratio, Spleen” value ([1]; 72 h) of the same compound?
**A.** 61.08

**Q.** And the “Injected dose per gram, Spleen” value ([1]; 72 h post injection)?
**A.** 0.14 % ID/g

**Q.** What about the “Tumor to organs ratio, Tail” value ([1]; 24 h) of the same compound?
**A.** 69.69

**Q.** And the “Injected dose per gram, Tail” value ([1]; 24 h post injection)?
**A.** 0.22 % ID/g

**Q.** And the “Tumor to organs ratio, Tail” value ([1]; 48 h)?
**A.** 187.42

**Q.** And the “Injected dose per gram, Tail” value ([1]; 48 h post injection)?
**A.** 0.07 % ID/g

**Q.** What about the “Tumor to organs ratio, Tail” value ([1]; 72 h) of the same compound?
**A.** 64.13

**Q.** What about the “Injected dose per gram, Tail” value ([1]; 72 h post injection) of the same compound?
**A.** 0.12 % ID/g

**Q.** What about the “Injected dose per gram, Tumor” value ([1]; 24 h post injection) of the same compound?
**A.** 14.29 % ID/g

**Q.** And the “Injected dose per gram, Tumor” value ([1]; 48 h post injection)?
**A.** 8.10 % ID/g

**Q.** And the “Injected dose per gram, Tumor” value ([1]; 72 h post injection)?
**A.** 8.00 % ID/g

**Q.** And the “Log D7.4” value [2]?
**A.** −3.75

**Q.** Which results are given for `N#C[C@@H]1CC(F)(F)CN1C(=O)CNC(=O)c1ccnc2c(NC(=O)CCC(=O)NCCNC(=O)CCC(C(=O)O)N3CCN(CC(=O)[O-])CCN(CC(=O)[O-])CCN(CC(=O)[O-])CC3)cccc12.[177Lu+3]` (stereo partly shown) [^177Lu-ESV6-DOTAGA, reference compound]?
**A.** Tumor to organs ratio, Blood ([1]; 24 h): 628.54; Injected dose per gram, Blood ([1]; 24 h post injection): 0.00 % ID/g; Tumor to organs ratio, Blood ([1]; 48 h): 2173.00; Injected dose per gram, Blood ([1]; 48 h post injection): 0.00 % ID/g; Tumor to organs ratio, Heart ([1]; 24 h): 497.97; Injected dose per gram, Heart ([1]; 24 h post injection): 0.01 % ID/g; Tumor to organs ratio, Heart ([1]; 48 h): 314.15; Injected dose per gram, Heart ([1]; 48 h post injection): 0.00 % ID/g; Tumor to organs ratio, Intestine ([1]; 24 h): 240.54; Injected dose per gram, Intestine ([1]; 24 h post injection): 0.01 % ID/g; Tumor to organs ratio, Intestine ([1]; 48 h): 232.61; Injected dose per gram, Intestine ([1]; 48 h post injection): 0.01 % ID/g; Tumor to organs ratio, Kidney ([1]; 24 h): 5.41; Injected dose per gram, Kidney ([1]; 24 h post injection): 0.47 % ID/g; Tumor to organs ratio, Kidney ([1]; 48 h): 4.22; Injected dose per gram, Kidney ([1]; 48 h post injection): 0.28 % ID/g; Tumor to organs ratio, Liver ([1]; 24 h): 37.66; Injected dose per gram, Liver ([1]; 24 h post injection): 0.07 % ID/g; Tumor to organs ratio, Liver ([1]; 48 h): 20.54; Injected dose per gram, Liver ([1]; 48 h post injection): 0.06 % ID/g; Tumor to organs ratio, Lung ([1]; 24 h): 977.01; Injected dose per gram, Lung ([1]; 24 h post injection): 0.01 % ID/g; Tumor to organs ratio, Lung ([1]; 48 h): 805.04; Injected dose per gram, Lung ([1]; 48 h post injection): 0.01 % ID/g; Tumor to organs ratio, Muscle ([1]; 24 h): 159.12; Injected dose per gram, Muscle ([1]; 24 h post injection): 0.03 % ID/g; Tumor to organs ratio, Muscle ([1]; 48 h): 142.88; Injected dose per gram, Muscle ([1]; 48 h post injection): 0.01 % ID/g; Tumor to organs ratio, Spleen ([1]; 24 h): 158.68; Injected dose per gram, Spleen ([1]; 24 h post injection): 0.03 % ID/g; Tumor to organs ratio, Spleen ([1]; 48 h): 503.00; Injected dose per gram, Spleen ([1]; 48 h post injection): 0.01 % ID/g; Tumor to organs ratio, Tail ([1]; 24 h): 48.95; Injected dose per gram, Tail ([1]; 24 h post injection): 0.05 % ID/g; Tumor to organs ratio, Tail ([1]; 48 h): 45.61; Injected dose per gram, Tail ([1]; 48 h post injection): 0.03 % ID/g; Injected dose per gram, Tumor ([1]; 24 h post injection): 2.53 % ID/g; Injected dose per gram, Tumor ([1]; 48 h post injection): 1.19 % ID/g; Log D7.4 [2]: −4.13
